These are literature values, as cited in patent US20260345561A1, “METHODS AND COMPOSITIONS FOR USE IN TREATING AUTOSOMAL RECESSIVE POLYCYSTIC KIDNEY DISEASE (ARPKD)” (The General Hospital Corporation, priority 2022, published 2026).

Each structure is given as a SMILES string.

For the data set the following is noted: racemic ketorolac 15 or 30 mg; Guo et al. 2015; cited from earlier work.

As for `O=C(c1ccccc1)c1ccc2n1CCC2C(=O)O` (racemic) [racemic ketorolac], the R-ketorolac level result was “achieved likely therapeutic ranges of R-ketorolac”.
